We go through one compound from PMC7366380, “Discovery of a Potent and Selective Covalent Inhibitor and Activity-Based Probe for the Deubiquitylating Enzyme UCHL1, with Antifibrotic Activity” (Journal of the American Chemical Society, 2020).

By EC50 is commonly meant the midpoint of the concentration-response curve. As usually defined, the IC50 is the concentration that gives 50% inhibition.

Structures are written as SMILES.

Series [1] is described as follows: FMT assay, cell number (DAPI nuclei count). The settings on record: human.
The subject of series [2] is primary human bronchial fibroblasts from IPF patients (TGF-β1-triggered αSMA). The series is described as follows: Fibroblast-to-myofibroblast transition (FMT) assay, αSMA by high content analysis.

As for `COC(=O)c1ccc2c(c1)NC(=O)/C2=C(\Nc1ccc(N(C)C(=O)CN2CCN(C)CC2)cc1)c1ccccc1` [nintedanib, reference compound], the EC50 at 3 days in series [1] is about 18 µM. The IC50 in series [2] (Homo sapiens, Fibroblast, 72 h, read-out: αSMA inhibition IC50 (95% CI)) was 0.28 µM. The “αSMA inhibition / transdifferentiation (in words)” value in series [2] (IPF donor fibroblasts, TGF-β1, 3 days, high content imaging) is listed as “inhibit transdifferentiation”.
